The target in assay [1] is T1, RFL9 (rat A2b-adenosine receptor) (Rattus norvegicus, UniProt P29276).
T1 sequence (P29276 1-332): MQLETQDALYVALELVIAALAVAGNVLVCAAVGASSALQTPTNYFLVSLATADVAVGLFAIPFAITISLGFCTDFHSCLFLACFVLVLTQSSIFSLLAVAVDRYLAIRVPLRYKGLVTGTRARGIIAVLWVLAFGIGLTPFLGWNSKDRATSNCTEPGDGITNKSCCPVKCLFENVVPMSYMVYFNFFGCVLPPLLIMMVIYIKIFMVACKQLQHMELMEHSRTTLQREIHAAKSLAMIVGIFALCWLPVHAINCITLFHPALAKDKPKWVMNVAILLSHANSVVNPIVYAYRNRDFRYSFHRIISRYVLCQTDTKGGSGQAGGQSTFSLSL
The experiment in a line: cAMP response in COS-6M cells transfected with RFL9. It is filed as cell-based.

The target of assay [2] is T1, RFL9 (rat A2b-adenosine receptor). The experiment in a line: [3H]NECA specific binding to RFL9-transformed CHO cells. Conditions: 100 nM; n=3. The source says: All determinations were done in triplicate.
Assay [3] shares this target. The experiment in a line: ligand binding to COS-6M cells transiently transfected with RFL9. Conditions: for specific binding: [3H]NECA 20 nM, [3H]CCPA 2 nM, [3H]CGS-21680 20 nM.
The target is the same in assay [4]. The experiment in a line: cAMP in CHO cells stably transfected with RFL9. Type of assay: cell-based. Conditions: NECA 1 μM; four clones. The source says:
Eight clones were identified which expressed RFL9 mRNA.
Generation of Stable Cell Lines
RNA was extracted from cells following NP-40 lysis.
Cyclic AMP Studies on Stable Transfectants

The test system of another assay is A2a-adenosine receptors. Conditions: cited from earlier work.
Another assay concerns CHO cells. Description: cAMP accumulation in non-transformed CHO cells. It is filed as cell-based, Chinese Hamster. Particulars: 1 mM; CHO cells not transformed; n=3. (In general: Changes in cAMP serve as a functional read-out for many G protein-coupled receptors.)
For assay [5], the system named is non-transformed CHO cells. Particulars: 100 nM.
Assay [6] deals with T2, rat A1-adenosine receptor (Rattus norvegicus, UniProt P25099).
T2 sequence (P25099 1-326): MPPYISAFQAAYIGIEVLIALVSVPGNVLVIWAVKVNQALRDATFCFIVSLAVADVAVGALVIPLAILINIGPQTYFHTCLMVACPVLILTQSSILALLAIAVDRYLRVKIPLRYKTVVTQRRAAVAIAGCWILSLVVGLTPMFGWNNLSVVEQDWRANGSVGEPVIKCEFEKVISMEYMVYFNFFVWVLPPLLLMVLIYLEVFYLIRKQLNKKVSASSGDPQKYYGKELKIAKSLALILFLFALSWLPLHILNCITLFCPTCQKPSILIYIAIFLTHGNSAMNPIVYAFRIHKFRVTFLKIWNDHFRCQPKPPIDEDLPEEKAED
The experiment in a line: [3H]ligand binding to COS-6M cells transiently transfected with rat A1-adenosine receptor cDNA. Particulars: [3H]NECA 20 nM, [3H]CCPA 2 nM.

For assay [7], the target named is rat A2a-adenosine receptor (Rattus norvegicus, UniProt P30543). Particulars: COS-6M cells; [3H]NECA 20 nM, [3H]CCPA 2 nM, [3H]CGS-21680 20 nM.
For assay [8], the system named is dog A2a-adenosine receptor. Particulars: cited from earlier work.

“Also recorded” adds a separate entry of the source.

Consider `Cn1c(=O)c2[nH]cnc2n(C)c1=O` [aminophylline], for which, in assay [1] (antagonist 10^-2 M), the “inhibition of maximal NECA-stimulated increase in cAMP levels” value is “completely blocked; also recorded: completely inhibited”.
Consider `CCNC(=O)[C@H]1O[C@@H](n2cnc3c(N)ncnc32)[C@H](O)[C@@H]1O` [[^3 H]NECA, [^3 H]5'-N-ethylcarboxamidoadenosine], for which the “[3H]NECA specific binding” value in assay [2] was 150 ± 20 fmol/mg. In assay [3], the specific binding entry is “specifically bound”.
As for `COc1ccc2[nH]c([125I])c(CCNC(C)=O)c2c1` [2[^125 1]melatonin], the “specific binding of 2[125I]melatonin” value in assay [3] is recorded as “do not exhibit specific binding”.
Consider `CCNC(=O)[C@H]1O[C@@H](n2cnc3c(N)ncnc32)[C@H](O)[C@@H]1O` [NECA, 5'-N-ethylcarboxamidoadenosine], for which the stimulation of clones result in [4] is listed as “all were found to be stimulated by NECA addition”. The EC100 in [1] (10 min, read-out: concentration of maximal stimulation of cAMP) turned out to be 10 µM. Moreover, the “NECA-stimulated increase in cAMP levels” value in assay [1] (dose-response) was “dose-dependent increase in cAMP levels”. Besides, the “affinity for A2a-adenosine receptors” value in the assay on A2a-adenosine receptors was “high affinity”. Further, the specific binding result in assay [3] is reported as “bind the nonselective adenosine agonist NECA”.
On to `Nc1ncnc2c1ncn2[C@@H]1O[C@H](CO)[C@@H](O)[C@H]1O` [adenosine], for which, in the assay on CHO cells, the cAMP accumulation result is given as “Neither NECA or adenosine (1 mM) induced cAMP accumulation”.
For `CCNC(=O)[C@H]1O[C@@H](n2cnc3c(N)ncnc32)[C@H](O)[C@@H]1O` [[^3 H]NECA] [[^3 H]5'-N-ethylcarboxamidoadenosine], in assay [5], the “[3H]NECA specific binding” value was 100 ± 23 fmol/mg. Further, in assay [6], the specific binding entry is recorded as “specifically bound”.
On to `OC[C@H]1O[C@@H](n2cnc3c(NC4CCCC4)nc(Cl)nc32)[C@H](O)[C@@H]1O` [[^3 H]CCPA, [^3 H]2-chloro-N-cyclopentyladenosine], for which the figures for the specific binding entry in assay [6], in [7] and in assay [3] were “specifically bound”, “Only cells transfected with the A1 -adenosine receptor cDNA specifically bound” and “did not bind; also recorded: do not bind either the A1 - or A2a -receptor-specific agonists with high affinity”, respectively.
Turning to `CCNC(=O)[C@H]1O[C@@H](n2cnc3c(N)nc(NCCc4ccc(CCC(=O)O)cc4)nc32)[C@H](O)[C@@H]1O` [[^3 H]CGS-21680, [^3 H]2-[p-(2-carboxyethyl)phenethylamino]5'-N-ethylcarbox-amidoadenosine], the specific binding result in assay [6] is “Only cells transfected with the A2a -adenosine receptor cDNA specifically bound”.
In the case of `CCNC(=O)[C@H]1O[C@@H](n2cnc3c(N)nc(NCCc4ccc(CCC(=O)O)cc4)nc32)[C@H](O)[C@@H]1O` [CGS-21680, 2-[p-(2-carboxyethyl)phenethylamino]5'-N-ethylcarbox-amidoadenosine], the “affinity for dog A2a-adenosine receptor” value in assay [8] is “high affinity”.

The values are drawn from patent US5516894A, “A2b -adenosine receptors” (priority 1994, dated 1996).
